Experimental data from the CheMixHub viscosity set.

Assay: xn = mol fraction of the nth substance listed

CCCCCCO + CC#N
viscosity [mPa·s], 101 kPa
Conditions | 298.15 K | 303.15 K | 308.15 K
x2 = 0.1095 | 3.187 | 2.576 | 2.165
x2 = 0.2173 | 2.358 | 2.078 | 1.839
x2 = 0.2885 | 1.966 | 1.831 | 1.573
x2 = 0.3844 | 1.55 | 1.386 | 1.233
x2 = 0.5121 | 1.109 | 1.004 | 0.913
x2 = 0.627 | 0.84 | 0.766 | 0.704
x2 = 0.7147 | 0.676 | 0.611 | 0.57
x2 = 0.7903 | 0.545 | 0.513 | 0.483
x2 = 0.8533 | 0.47 | 0.445 | 0.419
x2 = 0.9086 | 0.415 | 0.395 | 0.376
x2 = 0.9558 | 0.377 | 0.36 | 0.343

O=C1CCCCC1 + CC(=O)N(C)C
viscosity [mPa·s], 101 kPa
Conditions | 298.15 K | 308.15 K | 318.15 K
x1 = 0.1 | 1.024 | 0.873 | 0.75
x1 = 0.2001 | 1.095 | 0.907 | 0.76
x1 = 0.3001 | 1.182 | 0.956 | 0.782
x1 = 0.4001 | 1.28 | 1.018 | 0.823
x1 = 0.45 | 1.334 | 1.058 | 0.849
x1 = 0.4999 | 1.391 | 1.099 | 0.882
x1 = 0.5501 | 1.454 | 1.147 | 0.922
x1 = 0.5991 | 1.518 | 1.196 | 0.962
x1 = 0.7015 | 1.66 | 1.322 | 1.071
x1 = 0.7499 | 1.731 | 1.387 | 1.134
x1 = 0.7984 | 1.805 | 1.454 | 1.199
x1 = 0.8997 | 1.969 | 1.615 | 1.348

CC(=O)CC(C)C + CC(=O)O
viscosity [mPa·s]
Conditions | 293.15 K | 298.15 K | 308.15 K | 318.15 K
101.32 kPa, x1 = 0.048 | 1.179 | 1.085 | 0.9387 | 0.82
101.32 kPa, x1 = 0.102 | – | – | – | 0.7844
101.32 kPa, x1 = 0.103 | 1.122 | 1.037 | 0.8955 | –
101.32 kPa, x1 = 0.164 | 1.065 | 0.9866 | 0.8505 | 0.7456
101.32 kPa, x1 = 0.233 | – | – | – | 0.708
101.32 kPa, x1 = 0.234 | 1.004 | 0.9325 | 0.803 | –
101.32 kPa, x1 = 0.313 | – | – | – | 0.6696
101.32 kPa, x1 = 0.314 | 0.9417 | 0.8743 | 0.7592 | –
101.32 kPa, x1 = 0.405 | – | – | – | 0.6271
101.32 kPa, x1 = 0.406 | 0.8773 | 0.8108 | 0.7072 | –
101.32 kPa, x1 = 0.514 | 0.8105 | 0.752 | 0.6636 | 0.5844
101.32 kPa, x1 = 0.646 | – | – | – | 0.5401
101.32 kPa, x1 = 0.647 | 0.7427 | 0.688 | 0.6078 | –
101.32 kPa, x1 = 0.805 | – | 0.6272 | 0.5546 | 0.4944
101.32 kPa, x1 = 0.806 | 0.6691 | – | – | –
101.33 kPa, x1 = 0.048 | 1.179 | 1.085 | 0.9387 | 0.82
101.33 kPa, x1 = 0.102 | – | – | – | 0.7844
101.33 kPa, x1 = 0.103 | 1.122 | 1.037 | 0.8955 | –
101.33 kPa, x1 = 0.164 | 1.065 | 0.9866 | 0.8505 | 0.7456
101.33 kPa, x1 = 0.233 | – | – | – | 0.708
101.33 kPa, x1 = 0.234 | 1.004 | 0.9325 | 0.803 | –
101.33 kPa, x1 = 0.313 | – | – | – | 0.6696
101.33 kPa, x1 = 0.314 | 0.9417 | 0.8743 | 0.7592 | –
101.33 kPa, x1 = 0.405 | – | – | – | 0.6271
101.33 kPa, x1 = 0.406 | 0.8773 | 0.8108 | 0.7072 | –
101.33 kPa, x1 = 0.514 | 0.8105 | 0.752 | 0.6636 | 0.5844
101.33 kPa, x1 = 0.646 | – | – | – | 0.5401
101.33 kPa, x1 = 0.647 | 0.7427 | 0.688 | 0.6078 | –
101.33 kPa, x1 = 0.805 | – | 0.6272 | 0.5546 | 0.4944
101.33 kPa, x1 = 0.806 | 0.6691 | – | – | –

CCOCC + CC(=O)O
viscosity [mPa·s], 101 kPa
Conditions | x2 = 0.124 | x2 = 0.2575 | x2 = 0.5649 | x2 = 0.6393 | x2 = 0.749 | x2 = 0.9116
293.15 K | 0.3184 | 0.3737 | 0.5451 | 0.6641 | – | 1.048
303.15 K | 0.2837 | 0.3354 | 0.483 | 0.5903 | 0.7376 | 0.8999
313.15 K | – | 0.3088 | – | 0.5215 | 0.6621 | 0.791
323.15 K | – | – | 0.3937 | 0.4665 | 0.5877 | 0.6835
